Results reported in the supplement of paper PMC11061612.

Assays:
[1] = system: JHU-022 (Oral Cavity Carcinoma); assay: combination Emax (second highest fraction inhibited in the dose matrix, 72 h); higher = more inhibition; extreme values may be limits of the assay
Outline: (§1)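 Cell lines grown in DMEM/F12 or RPMI with 10% FBS were plated in 1536-well plates and held 24 hours at 37°C, 5% CO2 before 72 hours of exposure to two-drug dose matrices, with DMSO typically at 0.2%. CellTiter-Glo 2.0 luminescence gave viability, which was converted to inhibition. Vehicle wells were set to 0 and blank wells to 1. Combination Emax is the second-highest inhibition in the matrix, and Bliss excess is the observed combination effect minus the expected EA + EB − EA·EB, where EA and EB are the single-agent effects.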

NB13 (Neuroblastoma) = assay: as above
Outline: as §1

HCC70 (Breast Carcinoma) = assay: as above
Outline: as §1

EW-7 (Ewing's Sarcoma) = assay: as above
Outline: as §1

A204 (Rhabdomyosarcoma) = assay: as above
Outline: as §1

[2] = system: G-402 (Other Solid Carcinomas); assay: as above
Outline: as §1

[3] = system: JHH-2 (Hepatocellular Carcinoma); assay: as above
Outline: as §1

[4] = system: OACp4C (Esophageal Adenocarcinoma); assay: as above
Outline: as §1

[5] = system: 22RV1 (Prostate Carcinoma); assay: as above
Outline: as §1

[6] = system: HT55 (Colorectal Carcinoma); assay: as above
Outline: as §1

[7] = system: LS-411N (Colorectal Carcinoma); assay: as above
Outline: as §1

5637 (Bladder Carcinoma) [8] = assay: as above
Outline: as §1

[9] = system: huH-1 (Hepatocellular Carcinoma); assay: as above
Outline: as §1

[10] = system: MDA-MB-436 (Breast Carcinoma); assay: as above
Outline: as §1

[11] = system: ESO26 (Esophageal Adenocarcinoma); assay: as above
Outline: as §1

[12] = system: GA-10 (Burkitt's Lymphoma); assay: Bliss excess, mean over the matrix (fraction); higher = more synergy
Outline: as §1

[13] = system: JIMT-1 (Breast Carcinoma); assay: as above
Outline: as §1

EW-16 (Ewing's Sarcoma) = assay: as above
Outline: as §1

5637 (Bladder Carcinoma) [14] = assay: as above
Outline: as §1

[15] = system: KYSE-140 (Esophageal Squamous Cell Carcinoma); assay: as above
Outline: as §1
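For Bliss excess, mean over the matrix in this document: after 72 h of two-drug dosing.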

Structure (SMILES) | combination Emax [1] | combination Emax (NB13 (Neuroblastoma)) | combination Emax (HCC70 (Breast Carcinoma)) | combination Emax (EW-7 (Ewing's Sarcoma)) | combination Emax (A204 (Rhabdomyosarcoma)) | combination Emax [2] | combination Emax [3] | combination Emax [4] | combination Emax [5] | combination Emax [6] | combination Emax [7] | combination Emax (5637 (Bladder Carcinoma) [8]) | combination Emax [9] | combination Emax [10] | combination Emax [11] | Bliss excess [12] | Bliss excess [13] | Bliss excess (EW-16 (Ewing's Sarcoma)) | Bliss excess (5637 (Bladder Carcinoma) [14]) | Bliss excess [15]
NC1(C(=O)N[C@@H](CCO)c2ccc(Cl)cc2)CCN(c2ncnc3[nH]ccc23)CC1 [Capivasertib] + CC(=O)c1c(C)c2cnc(Nc3ccc(N4CCNCC4)cn3)nc2n(C2CCCC2)c1=O [Palbociclib] (first compound max 10 µM, 7x7, partner max 10 µM) | 0.471 | 0.392 | 0.657 | 0.657 | 0.517 | 0.605 | 0.608 | 0.858 | 0.639 | 0.607 | 0.628 | 0.387 | 0.374 | 0.224 | 0.498 | -0.0029 | -0.0115 | 0.0029 | -0.0521 | -0.0427
CC(=O)Nc1cccc(-n2c(=O)n(C3CC3)c(=O)c3c(Nc4ccc(I)cc4F)n(C)c(=O)c(C)c32)c1 [Trametinib] + Cc1nc(-c2cn3c(n2)-c2ccc(-c4cnn(C(C)(C)C(N)=O)c4)cc2OCC3)n(C(C)C)n1 [Taselisib] (first compound max 1 µM, 7x7, partner max 10 µM) | 0.903 | 0.428 | 1 | 1 | 0.816 | 0.792 | 1 | 1 | 0.704 | 0.859 | 0.946 | 0.989 | 0.688 | 0.527 | 0.746 | 0.0619 | 0.11 | 0.0772 | 0.292 | -0.0046
CCc1c2c(nc3ccc(O)cc13)-c1cc3c(c(=O)n1C2)COC(=O)[C@]3(O)CC [SN-38] + CN(C)CCCOc1ccc(-c2ccc3ncc4c(c3c2)n(C2CCOCC2)c(=O)n4C)cn1 [AZD0156] (first compound max 0.3 µM, 7x7, partner max 1 µM) | 0.842 | 0.886 | 0.2 | 0.975 | 0.59 | 0.745 | 0.7 | 0.714 | 0.683 | 0.449 | 0.363 | 0.802 | 0.762 | 0.572 | 0.655 | 0.0494 | 0.0056 | 0.0385 | 0.0507 | 0.0176
COc1cccc(OCCCN)c1-c1cc(Nc2cnc(C#N)cn2)n[nH]1 [Prexasertib] + C[C@@H]1COCCN1C2=NC(=NC(=C2)C3(CC3)[S@](=N)(=O)C)C4=C5C=CNC5=NC=C4 [AZD6738] (first compound max 1 µM, 7x7, partner max 10 µM) | 0.627 | 0.943 | 0.908 | 0.971 | 0.534 | 0.605 | 0.854 | 0.737 | 0.655 | 0.65 | 0.795 | 0.845 | 0.762 | 0.473 | 0.541 | -0.0023 | 0.0026 | 0.0053 | -0.0304 | -0.0191
CC(=O)c1c(C)c2cnc(Nc3ccc(N4CCNCC4)cn3)nc2n(C2CCCC2)c1=O [Palbociclib] + Cc1c2c(nn1C)CSCc1cc(n(C)n1)CSc1cc(c3ccccc3c1)OCCCc1c(C(=O)O)n(C)c3c-2c(Cl)ccc13 [AZD5991] (first compound max 10 µM, 7x7, partner max 1 µM) | 0.167 | 0.389 | 0.867 | 0.494 | 0.37 | 0.839 | 0.368 | 0.46 | 0.503 | 0.506 | 0.347 | 0.197 | 0.236 | 0.229 | 0.63 | -0.0211 | -0.0348 | -0.0356 | -0.0342 | -0.0814
COc1cccc(OCCCN)c1-c1cc(Nc2cnc(C#N)cn2)n[nH]1 [Prexasertib] + CCc1c2c(nc3ccc(O)cc13)-c1cc3c(c(=O)n1C2)COC(=O)[C@]3(O)CC [SN-38] (first compound max 1 µM, 7x7, partner max 0.3 µM) | 0.756 | 0.962 | 0.944 | 0.96 | 0.678 | 0.868 | 0.95 | 0.918 | 0.727 | 0.863 | 0.867 | 1 | 0.767 | 0.693 | 0.76 | 0.0088 | 0.0096 | -0.0002 | 0.0891 | -0.0076
CN(C)CCCOc1ccc(-c2ccc3ncc4c(c3c2)n(C2CCOCC2)c(=O)n4C)cn1 [AZD0156] + C=CCn1c(=O)c2cnc(Nc3ccc(N4CCN(C)CC4)cc3)nc2n1-c1cccc(C(C)(C)O)n1 [AZD1775] (first compound max 1 µM, partner max 1 µM) | 0.36 | 0.906 | 0.542 | 0.884 | 0.27 | 0.363 | 0.53 | 0.83 | 0.346 | 0.407 | 0.641 | 0.745 | 0.592 | 0.195 | 0.458 | 0.026 | -0.0287 | -0.0464 | -0.0851 | -0.0031
Cn1cnc2c(F)c(Nc3ccc(Br)cc3Cl)c(C(=O)NOCCO)cc21 [Selumetinib] + CC(C)n1c(=O)n(C)c2cnc3cc(F)c(-c4ccc(OCCCN5CCCCC5)nc4)cc3c21 [AZD1390] (first compound max 10 µM, 7x7, partner max 0.3 µM) | 0.497 | 0.0733 | 0.268 | 0.15 | 0.149 | 0.222 | 0.315 | 0.43 | 0.307 | 0.669 | 0.666 | 0.236 | 0.107 | 0.259 | 0.115 | -0.0227 | -0.0471 | -0.0582 | -0.0226 | -0.0337
CC1(C)CCC(CN2CCN(c3ccc(C(=O)NS(=O)(=O)c4ccc(NCC5CCOCC5)c([N+](=O)[O-])c4)c(Oc4cnc5[nH]ccc5c4)c3)CC2)=C(c2ccc(Cl)cc2)C1 [Venetoclax] + Cn1cnc2c(F)c(Nc3ccc(Br)cc3Cl)c(C(=O)NOCCO)cc21 [Selumetinib] (first compound max 1 µM, 7x7, partner max 3 µM) | 0.42 | 0.183 | 0.591 | 0.887 | 0.206 | 0.2 | 0.388 | 0.488 | 0.368 | 0.728 | 0.526 | 0.264 | 0.114 | 0.111 | 0.137 | -0.0622 | -0.0429 | -0.0561 | -0.0194 | -0.0042
CCN(CCO)CCCOc1ccc2c(Nc3cc(CC(=O)Nc4cccc(F)c4)[nH]n3)ncnc2c1 [AZD2811] + C=CCn1c(=O)c2cnc(Nc3ccc(N4CCN(C)CC4)cc3)nc2n1-c1cccc(C(C)(C)O)n1 [AZD1775] (first compound max 1 µM, partner max 1 µM) | 0.388 | 0.924 | 0.589 | 0.817 | 0.27 | 0.526 | 0.574 | 0.809 | 0.234 | 0.376 | 0.641 | 0.893 | 0.696 | 0.235 | 0.604 | 0.0303 | -0.0159 | -0.0134 | -0.0232 | -0.0155
CC1(C)CCC(CN2CCN(c3ccc(C(=O)NS(=O)(=O)c4ccc(NCC5CCOCC5)c([N+](=O)[O-])c4)c(Oc4cnc5[nH]ccc5c4)c3)CC2)=C(c2ccc(Cl)cc2)C1 [Venetoclax] + C[C@@H]1COCCN1C2=NC(=NC(=C2)C3(CC3)[S@](=N)(=O)C)C4=C5C=CNC5=NC=C4 [AZD6738] (first compound max 1 µM, 7x7, partner max 10 µM) | 0.593 | 0.942 | 0.819 | 0.959 | 0.479 | 0.705 | 0.697 | 0.711 | 0.599 | 0.58 | 0.736 | 0.69 | 0.597 | 0.36 | 0.508 | -0.0281 | -0.0643 | -0.0607 | -0.048 | -0.0185
COc1cccc(OCCCN)c1-c1cc(Nc2cnc(C#N)cn2)n[nH]1 [Prexasertib] + C=CCn1c(=O)c2cnc(Nc3ccc(N4CCN(C)CC4)cc3)nc2n1-c1cccc(C(C)(C)O)n1 [AZD1775] (first compound max 1 µM, partner max 1 µM) | 0.624 | 0.935 | 0.955 | 0.962 | 0.648 | 0.731 | 0.9 | 0.835 | 0.619 | 0.67 | 0.759 | 0.924 | 0.811 | 0.599 | 0.649 | 0.0653 | 0.032 | 0.155 | 0.0167 | 0.0329
CN(C)CCCOc1ccc(-c2ccc3ncc4c(c3c2)n(C2CCOCC2)c(=O)n4C)cn1 [AZD0156] + CCN(CCO)CCCOc1ccc2c(Nc3cc(CC(=O)Nc4cccc(F)c4)[nH]n3)ncnc2c1 [AZD2811] (first compound max 1 µM, 7x7, partner max 1 µM) | 0.193 | 0.479 | 0.604 | 0.403 | 0.297 | 0.532 | 0.287 | 0.598 | 0.267 | 0.16 | 0.137 | 0.609 | 0.317 | 0.0531 | 0.0581 | 0.0158 | -0.0181 | 0.0083 | 0.0043 | 0.025
